Source: PMC5632533, “Mechanisms of action and in vivo antibacterial efficacy assessment of five novel hybrid peptides derived from Indolicidin and Ranalexin against Streptococcus pneumoniae” (PeerJ, 2017)

Tested on: ICR (CD-1) mice
Test: In vivo toxicity in mice (SC, IN, IP routes)
Design: Aspartate aminotransferase, AST / Alanine transaminase, ALT / Alkaline phosphatase, ALP / Creatinine / Urea / Total bilirubin: unit not given here
Settings: for Eosinophil / Erythrocytes, RBC / Hematocrit, HCT / Hemoglobin Hgb / Lymphocytes / Mean corpuscular haemoglobin concentration, MCHC / Mean corpuscular haemoglobin, MCH / Mean corpuscular volume, MCV / Monocytes / White blood cells, WBC / platelet Counts, PLT / Granulocytes / Alanine transaminase, ALT / Alkaline phosphatase, ALP / Aspartate aminotransferase, AST / Creatinine / Total bilirubin / Urea: 3 doses (1hr, 12hr, 24hr), RN7-IN9, RN7-IN6 10 mg/kg, day 7, mean±SD, 4 mice; for Alanine transaminase, ALT / Alkaline phosphatase, ALP / Aspartate aminotransferase, AST / Creatinine / Total bilirubin / Urea: serum
Procedure: In this study, 4-week old male, pathogen free ICR (CD-1) mice were purchased from InVivos (Lim Chu Kang, Singapore) and used to assess the in vivo toxicity and antibacterial efficacy of the novel peptides, as these animals are by far the most commonly used model for the study of pneumococcal disease ([Chiavolini, Pozzi & Ricci, 2008]). The mice were kept in ventilated polycarbonate cages (12 h light/dark cycle, 20 ± 2 °C and 55% relative humidity). All mice were familiarized for seven days before any experimental procedure and were given unlimited pellets and water ad libitum. All animal experimentations were conducted according to the guidelines approved by Faculty of Medicine Institutional Animal Care and Use Committee (FOM IACUC), University of Malaya (ethics Reference no. : 2013-07-15/MMBTR/SDS).
In order to evaluate the possible toxic effects correlated to peptides administered in mice, four hybrid peptides RN7-IN10, RN7-IN9, RN7-IN8 and RN7-IN6 were chosen for in vivo toxicity assessment, due to their promising in vitro antibacterial activity ([Jindal et al., 2015]). Mice were separated into four groups (each with four mice) and were injected with respective peptides at 1 h, 12 h, and 24 h (three-dose regimen) via IP, SC, and IN administration routes. The hybrid peptides were first administered at high doses (100 mg/kg for IP route, 100 mg/kg for SC routes and 20 mg/kg for IN route). Any abnormal behavior was recorded and survival of mice was noted as well. In case adverse effects such as high physical stress, severe lethargy, physical inactiveness, and/or death were detected, lower graded doses were given. All the administered mice were monitored for seven days or until death occurred. At day seven post administration, all animals were sacrificed and blood and organs were collected. Untreated mice were used as a control group.
Mice used to evaluate the in vivo toxicity and antibacterial activity of the hybrid peptides using the subcutaneous (SC) and intranasal (IN) administration routes, were anesthetized using a combination of a standard dose of xylazine (ilium xylazil-20, 10 mg/kg) and ketamine (Narketan®-10, 100 mg/kg) through intraperitoneal (IP) injection. After seven days of treatment, the in vivo toxicity and antibacterial efficacy experiments were ended and the surviving mice were anesthetized. Blood samples for Hematological and biochemical analysis were collected via cardiac puncture using a 25G syringe (BD bioscience, San Jose, CA, USA). Whole blood for heamatological analysis was collected in 500 µl dipotassium EDTA microtainer tubes (BD Bioscience, USA). About 500 µl of blood collected an eppedorff tube and centrifuged at 8000 rpm for 5 min and then the serum was transferred into a new 1.5 ml tube for biochemistry analysis. The mice were then euthanized by cervical dislocation, dissected and the following organs were collected for histopathology evaluation: lung, kidney, brain, liver and spleen.
For whole blood analysis, the parameters were number of red cells (RBC), number of white cells (WBC), lymphocytes, monocytes, eosinophil, granulocytes, haemoglobin (Hgb), mean corpuscular volume (MCV), hematocrit (HCT), platelet Counts (PLT), Mean corpuscular haemoglobin (MCH) and corpuscular haemoglobin concentration (MCHC). For biochemistry analysis, the parameters were alanine transaminase (ALT), creatinine, alkaline phosphatase (ALP), aspartate aminotransferase (AST), total bilirubin and urea.
The following organs were collected from all the dissected mice: lung, kidney, brain, spleen, and liver. All tissues were fixed in 10% (v/v) buffered formalin and processed for paraffin embedding. Hematoxylin–eosin (HE) was used to stain the histological sections at the histopathology laboratory, Veterinary Laboratory Service Unit, University Putra Malaysia (UPM).

[1] = IN, head doses: RN7-IN10, RN7-IN8 20 mg/kg
[2] = SC, head doses: RN7-IN10, RN7-IN8 20 mg/kg

Question: Which Eosinophil [1] does the source give for “FLGGLIKWWPWRR-NH2 [RN7-IN6, hybrid peptide of ranalexin (residues 1-7) and indolicidin (residues 8-13)]” here?
Answer: Its Eosinophil is 3.5±0.9%.

Question: And the “Erythrocytes, RBC” value [1]?
Answer: Its value is 9.12±0.25 10^6/mm^3.

Question: What about the “Hematocrit, HCT” value [1] of the same substance?
Answer: The value was 47.43±0.61%.

Question: What about the “Hemoglobin Hgb” value [1] of the same substance?
Answer: The value was 15 ± 0.28 g/dL.

Question: What about the Lymphocytes [1] of the same substance?
Answer: The Lymphocytes was 47.67±12.2%.

Question: What about the “Mean corpuscular haemoglobin concentration, MCHC” value [1] of the same substance?
Answer: Its value is 31.7 ± 0.21 g/dL.

Question: And the “Mean corpuscular haemoglobin, MCH” value [1]?
Answer: Its value is 16.5 ± 0.17 pg.

Question: What about the “Mean corpuscular volume, MCV” value [1] of the same substance?
Answer: Its value is 52.66±1.24 µm^3.

Question: And the Monocytes [1]?
Answer: The Monocytes was 2.7±0.57%.

Question: What about the “White blood cells, WBC” value [1] of the same substance?
Answer: Its value is 3.6±0.35 10^3/mm^3.

Question: And the “platelet Counts, PLT” value [1]?
Answer: Its value is 597.66±123.23 10^3/mm^3.

Question: And the Eosinophil (IP, RN7-IN10, RN7-IN8 20 mg/kg)?
Answer: Its Eosinophil is 3.22±1.47%.

Question: What about the “Erythrocytes, RBC” value (IP, RN7-IN10, RN7-IN8 20 mg/kg) of the same substance?
Answer: Its value is 8.71±0.44 10^6/mm^3.

Question: And the Granulocytes (IP, RN7-IN10, RN7-IN8 20 mg/kg)?
Answer: The Granulocytes was 57.87±11.66%.

Question: What about the “Hematocrit, HCT” value (IP, RN7-IN10, RN7-IN8 20 mg/kg) of the same substance?
Answer: Its value is 44.97±1.75%.

Question: What about the “Hemoglobin Hgb” value (IP, RN7-IN10, RN7-IN8 20 mg/kg) of the same substance?
Answer: The value was 15.02 ± 0.59 g/dL.

Question: And the Lymphocytes (IP, RN7-IN10, RN7-IN8 20 mg/kg)?
Answer: Its Lymphocytes is 54.6±3.8%.

Question: What about the “Mean corpuscular haemoglobin concentration, MCHC” value (IP, RN7-IN10, RN7-IN8 20 mg/kg) of the same substance?
Answer: The value was 33.42 ± 0.62 g/dL.

Question: What about the “Mean corpuscular haemoglobin, MCH” value (IP, RN7-IN10, RN7-IN8 20 mg/kg) of the same substance?
Answer: Its value is 16.67 ± 1.07 pg.

Question: And the “Mean corpuscular volume, MCV” value (IP, RN7-IN10, RN7-IN8 20 mg/kg)?
Answer: The value was 50.5±1.29 µm^3.

Question: And the Monocytes (IP, RN7-IN10, RN7-IN8 20 mg/kg)?
Answer: Its Monocytes is 2.53±0.33%.

Question: What about the “White blood cells, WBC” value (IP, RN7-IN10, RN7-IN8 20 mg/kg) of the same substance?
Answer: Its value is 4.1±0.72 10^3/mm^3.

Question: And the “platelet Counts, PLT” value (IP, RN7-IN10, RN7-IN8 20 mg/kg)?
Answer: The value was 540.75±107.41 10^3/mm^3.

Question: What about the “maximum IP dose at which no signs of stress or abnormal behavior were evident (non-toxic dose)” value (IP, doses at 1 h, 12 h, 24 h, no death up to seven days) of the same substance?
Answer: The value was 10 mg/kg.

Question: What about the Eosinophil [2] of the same substance?
Answer: The Eosinophil was 2.7±0.71%.

Question: And the “Erythrocytes, RBC” value [2]?
Answer: Its value is 9.59±0.92 10^6/mm^3.

Question: What about the Granulocytes [2] of the same substance?
Answer: Its Granulocytes is 51.12±5.16%.

Question: What about the “Hematocrit, HCT” value [2] of the same substance?
Answer: The value was 49.2±4.43%.

Question: And the “Hemoglobin Hgb” value [2]?
Answer: The value was 16.17 ± 1.44 g/dL.

Question: What about the Lymphocytes [2] of the same substance?
Answer: Its Lymphocytes is 51.85±3.3%.

Question: And the “Mean corpuscular haemoglobin concentration, MCHC” value [2]?
Answer: The value was 32.87 ± 0.42 g/dL.

Question: What about the “Mean corpuscular haemoglobin, MCH” value [2] of the same substance?
Answer: The value was 16.85 ± 0.3 pg.

Question: And the “Mean corpuscular volume, MCV” value [2]?
Answer: The value was 50±1.82 µm^3.

Question: What about the Monocytes [2] of the same substance?
Answer: The Monocytes was 2.8±0.25%.

Question: And the “White blood cells, WBC” value [2]?
Answer: Its value is 3.86±0.34 10^3/mm^3.

Question: And the “Alanine transaminase, ALT” value [1]?
Answer: Its value is 43.2±7.56.

Question: And the “Alkaline phosphatase, ALP” value [1]?
Answer: The value was 138.33±5.5.

Question: And the “Aspartate aminotransferase, AST” value [1]?
Answer: The value was 140±7.2.

Question: What about the Creatinine [1] of the same substance?
Answer: Its Creatinine is 40.15±3.6.

Question: What about the Total bilirubin [1] of the same substance?
Answer: The Total bilirubin was 1.95±0.08.

Question: And the Urea [1]?
Answer: The Urea was 10.14±1.52.

Question: What about the “Alkaline phosphatase, ALP” value (IP, RN7-IN10, RN7-IN8 20 mg/kg) of the same substance?
Answer: Its value is 114.97±24.9.

Question: And the “Aspartate aminotransferase, AST” value (IP, RN7-IN10, RN7-IN8 20 mg/kg)?
Answer: The value was 176±19.31.

Question: What about the Creatinine (IP, RN7-IN10, RN7-IN8 20 mg/kg) of the same substance?
Answer: Its Creatinine is 41.47±4.2.

Question: What about the Total bilirubin (IP, RN7-IN10, RN7-IN8 20 mg/kg) of the same substance?
Answer: The Total bilirubin was 2.1±0.1.

Question: What about the Urea (IP, RN7-IN10, RN7-IN8 20 mg/kg) of the same substance?
Answer: Its Urea is 8.97±1.17.

Question: What about the “Alanine transaminase, ALT” value [2] of the same substance?
Answer: The value was 43.32±10.3.

Question: What about the “Alkaline phosphatase, ALP” value [2] of the same substance?
Answer: The value was 106.56±20.1.

Question: What about the “Aspartate aminotransferase, AST” value [2] of the same substance?
Answer: Its value is 158.25±18.9.

Question: What about the Creatinine [2] of the same substance?
Answer: The Creatinine was 34.89±0.25.

Question: What about the Total bilirubin [2] of the same substance?
Answer: The Total bilirubin was 2.03±0.14.

Question: And the Urea [2]?
Answer: The Urea was 9.07±2.02.
